According to PubChem BioAssay (NCI):
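Cells were grown in 96-well plates and exposed to each compound for 48 hours at five concentrations; endpoints were interpolated linearly between bracketing concentrations, or set to the highest concentration if not reached. GI50 is the concentration that inhibits growth by half. TGI: total growth inhibition.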

Tests used:
Assay in all cases: NCI-60 cell line screen, 48 h
[1] = tested on: NCI-H226 lung
[2] = tested on: HT29 colon
[3] = tested on: OVCAR-3 ovarian
[4] = tested on: KM12 colon
[5] = tested on: MDA-MB-231 breast
[6] = tested on: OVCAR-4 ovarian
[7] = tested on: TK-10 renal
[8] = tested on: UACC-62 melanoma
[9] = tested on: BT-549 breast
[10] = tested on: 786-0 renal
[11] = tested on: DU-145 prostate
[12] = tested on: RXF 393 renal
[13] = tested on: COLO 205 colon
[14] = tested on: SF-268 CNS
[15] = tested on: SNB-75 CNS
[16] = tested on: M14 melanoma
[17] = tested on: CAKI-1 renal
[18] = tested on: CCRF-CEM leukemia
[19] = tested on: IGROV1 ovarian
[20] = tested on: SNB-19 CNS
[21] = tested on: SK-MEL-5 melanoma
[22] = tested on: PC-3 prostate
[23] = tested on: LOX IMVI melanoma
[24] = tested on: UO-31 renal
[25] = tested on: HS 578T breast
[26] = tested on: U251 CNS
[27] = tested on: SW-620 colon
[28] = tested on: SN12C renal
[29] = tested on: ACHN renal
[30] = tested on: NCI/ADR-RES ovarian
[31] = tested on: SK-OV-3 ovarian
[32] = tested on: T-47D breast
[33] = tested on: HCT-116 colon
[34] = tested on: SF-539 CNS
[35] = tested on: HOP-62 NSCLC
[36] = tested on: HCT-15 colon
[37] = tested on: MALME-3M melanoma
[38] = tested on: MCF7 breast
[39] = tested on: MDA-MB-435
[40] = tested on: NCI-H460 lung
[41] = tested on: OVCAR-5 ovarian
[42] = tested on: SF-295 CNS
[43] = tested on: A498 renal
[44] = tested on: HOP-92 NSCLC
[45] = tested on: EKVX NSCLC
[46] = tested on: NCI-H522 lung
[47] = tested on: UACC-257 melanoma
[48] = tested on: RPMI-8226 leukemia
[49] = tested on: A549 NSCLC
[50] = tested on: HCC-2998 colon
[51] = tested on: SK-MEL-2 melanoma
[52] = tested on: SK-MEL-28 melanoma
[53] = tested on: OVCAR-8 ovarian
[54] = tested on: MOLT-4 leukemia
[55] = tested on: HL-60(TB) leukemia
[56] = tested on: K-562 leukemia
[57] = tested on: SR leukemia
[58] = tested on: NCI-H23 lung

With `N#Cc1nc(-c2ccccc2)oc1S(=O)(=O)N1CCCCC1` the GI50 [1] was 10.3 µM, the TGI [1] was 26.5 µM and the GI50 [2] was 12.4 µM. For the same compound, the TGI [2] was 28.4 µM, the GI50 [3] was 10.5 µM and the TGI [3] was 24.4 µM. The GI50 [4] was 29.1 µM, the TGI [4] was greater than 100 µM and the GI50 [5] was 25.4 µM. It also gave a TGI [5] of 80.7 µM, a GI50 [6] of 14.2 µM and a TGI [6] of 32.3 µM. The GI50 [7] was 22.1 µM, the TGI [7] was 63.2 µM and the GI50 [8] was 19.5 µM. It also gave a TGI [8] of 49.6 µM, a GI50 [9] of 13.7 µM and a TGI [9] of 48.8 µM. The GI50 [10] was 18.7 µM, the TGI [10] was 52.4 µM and the GI50 [11] was 15.3 µM. It also gave a TGI [11] of 28.6 µM, a GI50 [12] of 9.52 µM and a TGI [12] of 22.7 µM. For the same compound, the GI50 [13] was 2.67 µM, the TGI [13] was 7.1 µM and the GI50 [14] was 26.6 µM. The TGI [14] was greater than 100 µM, the GI50 [15] was 18.3 µM and the TGI [15] was 43.8 µM. For the same compound, the GI50 [16] was 11.2 µM, the TGI [16] was 61 µM and the GI50 [17] was 7.37 µM. For the same compound, the TGI [17] was 20.3 µM, the GI50 [18] was 2.36 µM and the TGI [18] was greater than 100 µM. It also gave a GI50 [19] of 28.7 µM, a TGI [19] greater than 100 µM and a GI50 [20] of 72.3 µM. It also gave a TGI [20] greater than 100 µM, a GI50 [21] of 30.9 µM and a TGI [21] greater than 100 µM. The GI50 [22] was 19.4 µM, the TGI [22] was 53.6 µM and the GI50 [23] was 1.51 µM. It also gave a TGI [23] of 5.24 µM, a GI50 [24] of 15.1 µM and a TGI [24] of 28.3 µM. For the same compound, the GI50 [25] was 23.1 µM, the TGI [25] was 87.2 µM and the GI50 [26] was 17.5 µM. For the same compound, the TGI [26] was 36.8 µM, the GI50 [27] was 4.17 µM and the TGI [27] was 18.1 µM. It also gave a GI50 [28] of 14.9 µM, a TGI [28] of 47.5 µM and a GI50 [29] of 4.98 µM. For the same compound, the TGI [29] was 16.5 µM, the GI50 [30] was 30.8 µM and the TGI [30] was greater than 100 µM. The GI50 [31] was greater than 100 µM, the TGI [31] was greater than 100 µM and the GI50 [32] was 16.2 µM. It also gave a TGI [32] of 36.8 µM, a GI50 [33] of 4.95 µM and a TGI [33] of 23.6 µM. It also gave a GI50 [34] of 17.5 µM, a TGI [34] of 34.3 µM and a GI50 [35] greater than 100 µM. For the same compound, the TGI [35] was greater than 100 µM, the GI50 [36] was 5.32 µM and the TGI [36] was 25.8 µM. It also gave a GI50 [37] of 10.8 µM, a TGI [37] of 32 µM and a GI50 [38] of 9.02 µM. For the same compound, the TGI [38] was 26.9 µM, the GI50 [39] was 14.6 µM and the TGI [39] was 31.2 µM. The GI50 [40] was 26.6 µM, the TGI [40] was greater than 100 µM and the GI50 [41] was 21.9 µM. The TGI [41] was 52.8 µM, the GI50 [42] was greater than 100 µM and the TGI [42] was greater than 100 µM. It also gave a GI50 [43] greater than 100 µM, a TGI [43] greater than 100 µM and a GI50 [44] of 6.29 µM. It also gave a TGI [44] of 19.6 µM, a GI50 [45] greater than 100 µM and a TGI [45] greater than 100 µM. For the same compound, the GI50 [46] was 2.08 µM, the TGI [46] was 7.94 µM and the GI50 [47] was 17.8 µM. The TGI [47] was 50.4 µM, the GI50 [48] was 17.5 µM and the TGI [48] was 49.5 µM. It also gave a GI50 [49] of 71.7 µM, a TGI [49] greater than 100 µM and a GI50 [50] of 17.1 µM. For the same compound, the TGI [50] was 32.8 µM, the GI50 [51] was 15.3 µM and the TGI [51] was 45.1 µM. For the same compound, the GI50 [52] was 17.5 µM, the TGI [52] was 33.8 µM and the GI50 [53] was 22.1 µM. It also gave a TGI [53] of 56.5 µM.

Compound `O=C1CC2(CCOCC2)Oc2ncccc21` has a GI50 [1] of 2.06 µM, a TGI [1] of 4.59 µM and a GI50 [2] of 2.19 µM. The TGI [2] was 4.85 µM, the GI50 [54] was 2.11 µM and the TGI [54] was 4.8 µM. For the same compound, the GI50 [4] was 2.76 µM, the TGI [4] was 7.65 µM and the GI50 [5] was 1.7 µM. The TGI [5] was 3.15 µM, the GI50 [6] was 2.1 µM and the TGI [6] was 4.82 µM. The GI50 [7] was 6.68 µM, the TGI [7] was 37.1 µM and the GI50 [8] was 1.7 µM. The TGI [8] was 3.22 µM, the GI50 [9] was 1.84 µM and the TGI [9] was 3.36 µM. The GI50 [10] was 2.38 µM, the TGI [10] was 6.33 µM and the GI50 [11] was 2.98 µM. The TGI [11] was 8.42 µM, the GI50 [12] was 1.77 µM and the TGI [12] was 3.41 µM. The GI50 [13] was 1.91 µM, the TGI [13] was 4 µM and the GI50 [14] was 2.55 µM. The TGI [14] was 7.7 µM, the GI50 [15] was 2.07 µM and the TGI [15] was 12.4 µM. For the same compound, the GI50 [16] was 1.85 µM, the TGI [16] was 3.76 µM and the GI50 [17] was 1.6 µM. For the same compound, the TGI [17] was 3.04 µM, the GI50 [18] was 2.11 µM and the TGI [18] was 4.74 µM. The GI50 [55] was 2.23 µM, the TGI [55] was 5.2 µM and the GI50 [19] was 1.88 µM. For the same compound, the TGI [19] was 3.86 µM, the GI50 [20] was 2.05 µM and the TGI [20] was 4.83 µM. For the same compound, the GI50 [21] was 2.09 µM, the TGI [21] was 4.34 µM and the GI50 [22] was 2.42 µM. For the same compound, the TGI [22] was 6.03 µM, the GI50 [24] was 2.63 µM and the TGI [24] was 12.8 µM. It also gave a GI50 [25] of 2.54 µM, a TGI [25] of 8.26 µM and a GI50 [26] of 1.83 µM. The TGI [26] was 3.63 µM, the GI50 [27] was 1.77 µM and the TGI [27] was 3.5 µM. The GI50 [28] was 1.84 µM, the TGI [28] was 3.44 µM and the GI50 [29] was 1.81 µM. For the same compound, the TGI [29] was 3.21 µM, the GI50 [30] was 2.05 µM and the TGI [30] was 4.99 µM. For the same compound, the GI50 [31] was 15.7 µM, the TGI [31] was 29.3 µM and the GI50 [32] was 4.66 µM. For the same compound, the TGI [32] was 26.9 µM, the GI50 [33] was 1.87 µM and the TGI [33] was 3.59 µM. It also gave a GI50 [34] of 1.74 µM, a TGI [34] of 3.22 µM and a GI50 [35] of 3.24 µM. For the same compound, the TGI [35] was 13.1 µM, the GI50 [36] was 1.7 µM and the TGI [36] was 3.34 µM. It also gave a GI50 [37] of 1.79 µM, a TGI [37] of 3.51 µM and a GI50 [38] of 2.8 µM. It also gave a TGI [38] of 12.8 µM, a GI50 [39] of 2 µM and a TGI [39] of 4.3 µM. It also gave a GI50 [40] of 2.3 µM, a TGI [40] of 5.61 µM and a GI50 [41] of 1.7 µM. The TGI [41] was 3.18 µM, the GI50 [42] was 12.5 µM and the TGI [42] was 25.4 µM. For the same compound, the GI50 [43] was 2.38 µM, the TGI [43] was 9.57 µM and the GI50 [44] was 1.67 µM. For the same compound, the TGI [44] was 3.3 µM, the GI50 [45] was 1.84 µM and the TGI [45] was 3.87 µM. It also gave a GI50 [46] of 2 µM, a TGI [46] of 4.15 µM and a GI50 [47] of 2.53 µM. For the same compound, the TGI [47] was 7.53 µM, the GI50 [48] was 0.545 µM and the TGI [48] was 4.7 µM. The GI50 [49] was 4.94 µM, the TGI [49] was 19.1 µM and the GI50 [56] was 1.99 µM. For the same compound, the TGI [56] was greater than 100 µM, the GI50 [50] was 1.78 µM and the TGI [50] was 3.4 µM. The GI50 [57] was 0.974 µM, the TGI [57] was 4.69 µM and the GI50 [51] was 2.73 µM. It also gave a TGI [51] of 7.32 µM, a GI50 [58] of 1.89 µM and a TGI [58] of 3.86 µM. For the same compound, the GI50 [52] was 1.81 µM, the TGI [52] was 3.36 µM and the GI50 [53] was 2.19 µM. For the same compound, the TGI [53] was 4.92 µM.
